The values below come from article PMC5003625 (Journal of medicinal chemistry, 2016).

Experiment [1] has as its system EZH2. The settings on record: cited from earlier work; for selectivity for EZH2 over EZH1: reported inhibitors.
Experiment [2] addresses EZH1 pentameric complex (EZH1:EED:SUZ12:RBBP4:AEBP2) (Homo sapiens, UniProt Q92800). Description: Methyltransferase activity assay. The experiment is classed as biochemical.
Experiment [3] deals with EZH2 trimeric complex (EZH2:EED:SUZ12) (Homo sapiens, UniProt Q15910). Description: Methyltransferase activity assay. Type of experiment: biochemical. The settings on record: for fold loss of potency for EZH2: relative to the parent compound of the sentence (5, 24 or 53).
Sequence of EZH2 trimeric complex (EZH2:EED:SUZ12) (Q15910 whole entry): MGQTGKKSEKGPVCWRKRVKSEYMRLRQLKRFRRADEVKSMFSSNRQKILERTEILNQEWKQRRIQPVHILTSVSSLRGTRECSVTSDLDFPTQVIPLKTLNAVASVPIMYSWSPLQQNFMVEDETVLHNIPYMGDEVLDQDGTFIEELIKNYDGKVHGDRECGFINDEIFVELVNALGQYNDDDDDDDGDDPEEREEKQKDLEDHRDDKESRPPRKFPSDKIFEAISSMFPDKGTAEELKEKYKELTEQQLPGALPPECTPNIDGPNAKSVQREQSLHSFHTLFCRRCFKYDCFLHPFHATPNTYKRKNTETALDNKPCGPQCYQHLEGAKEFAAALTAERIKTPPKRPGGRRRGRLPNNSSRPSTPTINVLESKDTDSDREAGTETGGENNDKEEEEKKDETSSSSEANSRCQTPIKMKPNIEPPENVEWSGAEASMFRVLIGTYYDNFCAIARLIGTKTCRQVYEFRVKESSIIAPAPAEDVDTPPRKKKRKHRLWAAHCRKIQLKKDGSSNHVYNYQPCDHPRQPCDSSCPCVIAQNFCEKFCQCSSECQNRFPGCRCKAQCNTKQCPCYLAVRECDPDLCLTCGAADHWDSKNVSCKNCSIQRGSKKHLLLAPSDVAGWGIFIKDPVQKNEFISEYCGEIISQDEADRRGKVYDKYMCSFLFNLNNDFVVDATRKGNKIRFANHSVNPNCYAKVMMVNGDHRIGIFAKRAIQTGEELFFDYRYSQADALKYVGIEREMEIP
Sequence of EZH2 trimeric complex (EZH2:EED:SUZ12) (O75530 whole entry partner): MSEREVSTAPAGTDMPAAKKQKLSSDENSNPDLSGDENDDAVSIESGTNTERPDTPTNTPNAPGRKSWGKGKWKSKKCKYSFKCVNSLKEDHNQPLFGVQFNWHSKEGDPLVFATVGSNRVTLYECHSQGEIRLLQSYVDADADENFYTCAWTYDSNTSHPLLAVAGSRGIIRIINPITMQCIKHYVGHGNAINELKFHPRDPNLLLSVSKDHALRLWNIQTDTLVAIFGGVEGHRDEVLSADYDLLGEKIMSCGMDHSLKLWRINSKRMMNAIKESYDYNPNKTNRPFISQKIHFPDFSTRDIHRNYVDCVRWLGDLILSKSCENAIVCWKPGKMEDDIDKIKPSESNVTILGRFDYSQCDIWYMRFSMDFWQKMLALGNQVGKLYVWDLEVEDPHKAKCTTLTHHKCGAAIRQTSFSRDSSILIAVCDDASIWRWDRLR
Sequence of EZH2 trimeric complex (EZH2:EED:SUZ12) (Q15022 whole entry partner): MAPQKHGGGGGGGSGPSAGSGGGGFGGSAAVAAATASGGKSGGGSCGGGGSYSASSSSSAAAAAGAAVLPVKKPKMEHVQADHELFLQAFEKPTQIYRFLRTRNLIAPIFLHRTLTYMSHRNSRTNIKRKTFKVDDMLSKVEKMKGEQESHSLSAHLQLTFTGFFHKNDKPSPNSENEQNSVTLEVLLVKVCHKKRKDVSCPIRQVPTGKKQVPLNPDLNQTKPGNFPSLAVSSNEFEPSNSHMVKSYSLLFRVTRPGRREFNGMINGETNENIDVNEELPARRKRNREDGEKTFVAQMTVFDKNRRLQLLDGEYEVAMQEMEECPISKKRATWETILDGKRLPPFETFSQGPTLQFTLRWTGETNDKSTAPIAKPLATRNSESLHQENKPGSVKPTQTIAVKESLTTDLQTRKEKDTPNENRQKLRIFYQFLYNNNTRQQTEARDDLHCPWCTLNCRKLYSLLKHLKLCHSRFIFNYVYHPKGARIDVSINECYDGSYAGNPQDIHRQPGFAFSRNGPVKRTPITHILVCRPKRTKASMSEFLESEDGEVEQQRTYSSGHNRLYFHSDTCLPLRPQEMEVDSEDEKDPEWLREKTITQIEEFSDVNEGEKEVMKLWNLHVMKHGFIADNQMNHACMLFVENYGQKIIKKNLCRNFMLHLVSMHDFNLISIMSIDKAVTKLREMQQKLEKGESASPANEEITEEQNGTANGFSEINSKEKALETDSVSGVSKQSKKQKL

Sequence of EZH1 pentameric complex (EZH1:EED:SUZ12:RBBP4:AEBP2) (Q92800 whole entry): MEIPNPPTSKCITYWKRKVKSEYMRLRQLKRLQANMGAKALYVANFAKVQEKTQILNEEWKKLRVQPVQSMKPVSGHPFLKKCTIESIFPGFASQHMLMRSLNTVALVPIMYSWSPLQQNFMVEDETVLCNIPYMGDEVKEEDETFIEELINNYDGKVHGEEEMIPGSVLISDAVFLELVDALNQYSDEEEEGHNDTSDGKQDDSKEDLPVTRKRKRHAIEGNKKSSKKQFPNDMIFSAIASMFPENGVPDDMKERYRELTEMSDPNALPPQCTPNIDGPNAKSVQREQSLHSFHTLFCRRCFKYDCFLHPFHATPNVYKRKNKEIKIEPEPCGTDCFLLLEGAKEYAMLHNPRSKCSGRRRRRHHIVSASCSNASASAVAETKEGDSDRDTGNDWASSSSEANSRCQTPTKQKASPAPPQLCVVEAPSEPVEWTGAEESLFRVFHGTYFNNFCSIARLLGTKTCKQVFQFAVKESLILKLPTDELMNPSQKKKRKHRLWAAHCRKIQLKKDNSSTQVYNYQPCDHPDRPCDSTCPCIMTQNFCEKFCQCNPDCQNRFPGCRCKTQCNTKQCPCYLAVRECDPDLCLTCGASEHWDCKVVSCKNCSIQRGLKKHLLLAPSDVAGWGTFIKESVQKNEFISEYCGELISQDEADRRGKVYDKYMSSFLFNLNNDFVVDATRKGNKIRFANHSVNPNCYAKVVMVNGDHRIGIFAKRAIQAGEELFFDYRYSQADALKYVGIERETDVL
Sequence of EZH1 pentameric complex (EZH1:EED:SUZ12:RBBP4:AEBP2) (O75530 whole entry partner): as the sequence (O75530 whole entry partner) above
Sequence of EZH1 pentameric complex (EZH1:EED:SUZ12:RBBP4:AEBP2) (Q15022 whole entry partner): as the sequence (Q15022 whole entry partner) above
Sequence of EZH1 pentameric complex (EZH1:EED:SUZ12:RBBP4:AEBP2) (Q09028 whole entry partner): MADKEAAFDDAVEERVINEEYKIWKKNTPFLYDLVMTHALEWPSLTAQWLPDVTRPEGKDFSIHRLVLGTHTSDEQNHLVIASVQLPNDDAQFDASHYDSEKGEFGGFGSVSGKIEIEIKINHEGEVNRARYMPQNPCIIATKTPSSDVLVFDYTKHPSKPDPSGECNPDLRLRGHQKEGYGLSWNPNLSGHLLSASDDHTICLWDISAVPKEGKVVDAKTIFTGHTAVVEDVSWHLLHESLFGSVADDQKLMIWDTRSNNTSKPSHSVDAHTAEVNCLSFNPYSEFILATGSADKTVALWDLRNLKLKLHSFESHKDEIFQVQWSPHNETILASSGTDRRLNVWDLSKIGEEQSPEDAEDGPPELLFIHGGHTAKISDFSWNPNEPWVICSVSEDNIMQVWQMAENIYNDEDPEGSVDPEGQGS
Sequence of EZH1 pentameric complex (EZH1:EED:SUZ12:RBBP4:AEBP2) (Q6ZN18 whole entry partner): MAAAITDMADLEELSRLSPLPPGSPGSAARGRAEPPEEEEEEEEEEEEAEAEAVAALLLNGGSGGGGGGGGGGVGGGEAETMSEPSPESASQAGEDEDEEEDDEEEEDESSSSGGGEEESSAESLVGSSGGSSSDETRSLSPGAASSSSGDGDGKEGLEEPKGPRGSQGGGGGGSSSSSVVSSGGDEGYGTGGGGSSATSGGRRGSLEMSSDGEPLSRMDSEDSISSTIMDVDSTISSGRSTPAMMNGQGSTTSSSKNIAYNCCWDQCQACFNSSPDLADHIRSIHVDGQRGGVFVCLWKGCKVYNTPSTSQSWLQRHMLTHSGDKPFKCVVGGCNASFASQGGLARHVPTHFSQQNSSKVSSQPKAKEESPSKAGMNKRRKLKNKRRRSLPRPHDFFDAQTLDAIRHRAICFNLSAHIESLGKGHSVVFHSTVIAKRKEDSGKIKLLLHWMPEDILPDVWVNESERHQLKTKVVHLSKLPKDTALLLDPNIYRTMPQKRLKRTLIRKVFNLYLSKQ

In the case of `CCCc1cc(C)[nH]c(=O)c1CNC(=O)c1cc(-c2ccnc(N3CCN(C)CC3)c2)cc2c1cnn2C(C)C` [Compound 3, GSK343], the “selectivity for EZH2 over EZH1” value in experiment [1] is reported as 60 fold.
In the case of `CCCc1cc(C)[nH]c(=O)c1CNC(=O)c1cnn2c(-c3ccc(N4CCN(C(C)C)CC4)nc3)cccc12` [Compound 49, 7-(6-(4-Isopropylpiperazin-1-yl)pyridin-3-yl)-N-((6-methyl-2-oxo-4-propyl-1,2-dihydropyridin-3-yl)methyl)pyrazolo[1,5-a]pyridine-3-carboxamide], the “inhibitory activity against EZH1, in words” value in experiment [2] is listed as “did not display any inhibitory activity”. Besides, the “inhibitory activity against EZH2, in words” value in experiment [3] is “did not display any inhibitory activity”.
For `CCN(c1cc(-c2ccc(N3CCN(C)CC3)nc2)cc(C(=O)NCc2c3c(c(C)[nH]c2=O)CCCC3)c1C)C1CCOCC1` [Compound 10, ZLD1039], in experiment [1], the “selectivity for EZH2 over EZH1” value is on record as 12 fold.
On to `Cc1cc(O)c(CNC(=O)c2cc(-c3ccc(N4CCN(C(C)C)CC4)nc3)cc3c2cnn3C(C)C)c(=O)[nH]1` [Compound 39, N-((4-Hydroxy-6-methyl-2-oxo-1,2-dihydropyridin-3-yl)methyl)-1-isopropyl-6-(6-(4-isopropylpiperazin-1-yl)pyridin-3-yl)-1H-inda-zole-4-carboxamide], for which, in experiment [2], the “inhibitory activity against EZH1, in words” value was “total loss of potency”. Further, the “inhibitory activity against EZH2, in words” value in experiment [3] was “total loss of potency”.
For `CCCc1cc(C)[nH]c(=O)c1CNC(=O)c1cc(-c2ccc(N3CCN(C(C)C)CC3)nc2)cc2c1cnn2C(C)C` [Compound 5, UNC1999], the IC50 in experiment [1] (read-out: IC50 EZH2, previously reported) was less than 10 nM.
Turning to `CCCc1cc(C)[nH]c(=O)c1CNC(=O)c1nn(C(C)C)c2cc(-c3ccc(N4CCN(C(C)C)CC4)nc3)ccc12` [Compound 45, 1-Isopropyl-6-(6-(4-isopropylpiperazin-1-yl)pyridin-3-yl)-N-((6-methyl-2-oxo-4-propyl-1,2-dihydropyridin-3-yl)methyl)-1H-inda-zole-3-carboxamide], the “inhibitory activity against EZH1, in words” value in experiment [2] is “obliterated the inhibitory activity”. Further, the “inhibitory activity against EZH2, in words” value in experiment [3] is given as “obliterated the inhibitory activity”.
Regarding `COc1cc(C)[nH]c(=O)c1CNC(=O)c1c(C)n([C@H](C)C2CCOCC2)c2ccccc12` [Compound 8, CPI-360], in experiment [1], the “selectivity for EZH2 over EZH1” value is given as 100 fold.
With `CCCc1cc(C)[nH]c(=O)c1CNC(=O)c1cc(-c2ccc(N3CCN(CC)CC3)nc2)cc2c1cnn2C(C)C` [Compound 64], in experiment [2], the “inhibitory activity against EZH1, in words” value is recorded as “did not affect the potency”. Further, the “inhibitory activity against EZH2, in words” value in experiment [3] is listed as “did not affect the potency”.
For `CCCc1cc(C)[nH]c(=O)c1CNC(=O)c1cn2ccc(-c3ccc(N4CCN(C(C)C)CC4)nc3)cc2n1` [Compound 50, 7-(6-(4-Isopropylpiperazin-1-yl)pyridin-3-yl)-N-((6-methyl-2-oxo-4-propyl-1,2-dihydropyridin-3-yl)methyl)imidazo[1,2-a]pyridine-2-carboxamide], the “inhibitory activity against EZH1, in words” value in experiment [2] is “inactive”. Besides, the “inhibitory activity against EZH2, in words” value in experiment [3] is “inactive”.
With `Cc1ncc(CNC(=O)c2cc(-c3ccc(N4CCN(C(C)C)CC4)nc3)cc3c2cnn3C(C)C)c(=O)[nH]1` [Compound 40, 1-Isopropyl-6-(6-(4-isopropylpiperazin-1-yl)pyridin-3-yl)-N-((2-methyl-6-oxo-1,6-dihydropyrimidin-5-yl)methyl)-1H-indazole-4-carboxamide], the “inhibitory activity against EZH1, in words” value in experiment [2] was “completely abrogated inhibitory activity”. Moreover, the “inhibitory activity against EZH2, in words” value in experiment [3] is “completely abrogated inhibitory activity”.
For the molecule `CCCc1cc(C)[nH]c(=O)c1CNC(=O)c1cc(-c2ccc(N3CCN(C(C)C)CC3)nc2)cc2nn(C(C)C)cc12` [Compound 44, 2-Isopropyl-6-(6-(4-isopropylpiperazin-1-yl)pyridin-3-yl)-N-((6-methyl-2-oxo-4-propyl-1,2-dihydropyridin-3-yl)methyl)-2H-inda-zole-4-carboxamide], in experiment [2] (relative to the parent compound 5), the “fold loss of potency for EZH1” value is listed as “more than 30 fold”. In addition, the “fold loss of potency for EZH2” value in experiment [3] is reported as “more than 30 fold”.
As for `Cc1cc(C)c(CNC(=O)c2cc(-c3ccc(CN4CCOCC4)cc3)cc3c2cnn3C2CCCC2)c(=O)[nH]1` [Compound 1, EPZ005687], in experiment [1], the “selectivity for EZH2 over EZH1” value is 50 fold.
On to `Cc1cc(-c2ccccc2)[nH]c(=O)c1CNC(=O)c1cc(-c2ccc(N3CCN(C(C)C)CC3)nc2)cc2c1cnn2C(C)C` [Compound 33, 1-Isopropyl-6-(6-(4-isopropylpiperazin-1-yl)pyridin-3-yl)-N-((4-methyl-2-oxo-6-phenyl-1,2-dihydropyridin-3-yl)methyl)-1H-inda-zole-4-carboxamide], for which, in experiment [2], the “inhibitory activity against EZH1, in words” value is given as “complete loss of potency”. In addition, the “inhibitory activity against EZH2, in words” value in experiment [3] is given as “complete loss of potency”.
As to `CCC(CC)n1ccc2c(C(=O)NCc3c(C)cc(C)[nH]c3=O)cc(C#N)cc21` [Compound 4, EI1], in experiment [1], the “selectivity for EZH2 over EZH1” value was 140 fold.
With `CC[C@H](C)n1cc(C)c2c(C(=O)NCc3c(C)cc(C)[nH]c3=O)cc(-c3ccc(N4CCNCC4)nc3)cc21` [Compound 2, GSK126], the “selectivity for EZH2 over EZH1” value in experiment [1] is reported as 150 fold.
`CCCc1cc(C)[nH]c(=O)c1CNC(=O)c1cc(-c2ccc(N3CCN(C(C)C)CC3)nc2)cc2c1cnn2C1CCCCCC1` [Compound 56, 1-Cycloheptyl-6-(6-(4-isopropylpiperazin-1-yl)pyridin-3-yl)-N-((6-methyl-2-oxo-4-propyl-1,2-dihydropyridin-3-yl)methyl)-1H-inda-zole-4-carboxamide]: the “inhibitory activity against EZH1, in words” value in experiment [2] is reported as “did not have appreciable inhibitory activity”. Also, the “fold loss of potency for EZH2” value in experiment [3] is on record as 10–20 fold.
As to `CCCc1cc(C)[nH]c(=O)c1CNC(=O)c1nn(C(C)C)c2ccc(-c3ccc(N4CCN(C(C)C)CC4)nc3)cc12` [Compound 46, 1-Isopropyl-5-(6-(4-isopropylpiperazin-1-yl)pyridin-3-yl)-N-((6-methyl-2-oxo-4-propyl-1,2-dihydropyridin-3-yl)methyl)-1H-inda-zole-3-carboxamide], the “inhibitory activity against EZH1, in words” value in experiment [2] is recorded as “complete loss of potency”. Besides, in experiment [3], the “inhibitory activity against EZH2, in words” value is on record as “complete loss of potency”.
As to `CCCc1cc(C)[nH]c(=O)c1CNC(=O)c1cccn2c(-c3ccc(N4CCN(C(C)C)CC4)nc3)cnc12` [Compound 48, 3-(6-(4-Isopropylpiperazin-1-yl)pyridin-3-yl)-N-((6-methyl-2-oxo-4-propyl-1,2-dihydropyridin-3-yl)methyl)imidazo[1,2-a]pyridine-8-carboxamide], the “inhibitory activity against EZH1, in words” value in experiment [2] was “did not display any inhibitory activity”. Further, the “inhibitory activity against EZH2, in words” value in experiment [3] was “did not display any inhibitory activity”.
Take `CCCc1cc(C)[nH]c(=O)c1CNC(=O)c1cc(-c2ccc(N3CCN(C(C)C)CC3)nc2)cc2c1cnn2C` [Compound 55, 6-(6-(4-Isopropylpiperazin-1-yl)pyridin-3-yl)-1-methyl-N-((6-methyl-2-oxo-4-propyl-1,2-dihydropyridin-3-yl)methyl)-1H-inda-zole-4-carboxamide]: the “inhibitory activity against EZH1, in words” value in experiment [2] is on record as “did not have appreciable inhibitory activity”. In addition, the “fold loss of potency for EZH2” value in experiment [3] is reported as 10–20 fold.
Take `Cc1[nH]c(=O)[nH]c(=O)c1CNC(=O)c1cc(-c2ccc(N3CCN(C(C)C)CC3)nc2)cc2c1cnn2C(C)C` [Compound 42, 1-Isopropyl-6-(6-(4-isopropylpiperazin-1-yl)pyridin-3-yl)-N-((6-methyl-2,4-dioxo-1,2,3,4-tetrahydropyrimidin-5-yl)methyl)-1H-in-dazole-4-carboxamide]: the “inhibitory activity against EZH1, in words” value in experiment [2] was “completely abrogated inhibitory activity”. In addition, the “inhibitory activity against EZH2, in words” value in experiment [3] is “completely abrogated inhibitory activity”.

What is called IC50 is the concentration that inhibits the measured activity by half.
